Reference: BindingDB's records for doi:10.7270/Q2N301S8 (D3R/Abbott, 2020)
pIC50: −log10 of the molar value.

Biological target: Beta-secretase 1 (Homo sapiens, UniProt P56817)
Experiment: D3R2027
Description: D3R2027

Chain of Beta-secretase 1 (P56817 whole entry): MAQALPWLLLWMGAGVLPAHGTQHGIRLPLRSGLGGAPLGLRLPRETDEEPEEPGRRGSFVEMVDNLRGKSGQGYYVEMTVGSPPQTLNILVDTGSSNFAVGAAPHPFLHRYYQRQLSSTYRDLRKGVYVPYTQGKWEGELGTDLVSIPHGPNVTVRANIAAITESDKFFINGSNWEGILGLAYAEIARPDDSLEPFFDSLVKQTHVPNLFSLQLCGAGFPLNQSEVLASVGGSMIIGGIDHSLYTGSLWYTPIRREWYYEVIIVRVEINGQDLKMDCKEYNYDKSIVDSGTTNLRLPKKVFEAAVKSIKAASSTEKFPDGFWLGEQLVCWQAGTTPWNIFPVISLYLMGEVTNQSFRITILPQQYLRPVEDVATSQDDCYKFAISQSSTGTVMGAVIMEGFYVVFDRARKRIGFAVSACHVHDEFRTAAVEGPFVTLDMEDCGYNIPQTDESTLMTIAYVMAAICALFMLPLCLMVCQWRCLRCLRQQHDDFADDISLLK

pIC50 | SMILES
8.26 | COCc1cc2cc(n1)NCCCCOCC[C@@H](C)C[C@@H]([C@H](O)CNC1(c3cccc(C(C)(C)C)c3)CC1)NC2=O [BACE_47]
7.08 | Cc1cc2cc(n1)NCCCCOCC[C@@H](C)C[C@@H]([C@H](O)CNC(C)(C)c1cc(CC(C)(C)C)on1)NC2=O [BACE_48]
6.33 | C/C1=C\[C@@H]([C@H](O)CNCc2cccc(C(C)C)c2)NC(=O)c2cc(Cl)nc(c2)NCCCCOCC1 [BACE_49]
7.34 | Cc1cc2cc(n1)NN(C(=O)c1ccc(F)cc1)CCCCCC[C@@H](C)C[C@@H]([C@H](O)CNCc1cccc(C(C)C)c1)NC2=O [BACE_50]
7.54 | CC(C)c1cccc(CNC[C@@H](O)[C@@H]2C[C@H](C)CCCCCCCOc3cc(cc(Cl)n3)C(=O)N2)c1 [BACE_51]
8.12 | CC(C)c1ccnc(C2(NC[C@@H](O)[C@@H]3C[C@H](C)CCCCCCCOc4cc(cc(Cl)n4)C(=O)N3)CC2)c1 [BACE_52]
5.00 | CC(C)c1cccc(CNC[C@@H](O)[C@@H]2C[C@H](C)CCCCCCCCc3cc(ccn3)C(=O)N2)c1 [BACE_53]
5.77 | Cc1cc2cc(n1)OCCCOCC[C@@H](C)C[C@@H]([C@H](O)CNCc1cccc(C(C)C)c1)NC2=O [BACE_54]
6.27 | CC(C)c1cccc(C(C)(C)NC[C@@H](O)[C@@H]2C[C@H](C)CCCCCCCNc3cccc(c3)C(=O)N2)c1 [BACE_55]
6.77 | C[C@@H]1CCCCCCCNc2cccc(c2)C(=O)N[C@H]([C@H](O)CNC2(c3cccc(C(C)(C)C)c3)COC2)C1 [BACE_56]
7.64 | C[C@@H]1CCCCCCCNc2cccc(c2)C(=O)N[C@H]([C@H](O)CNC(C)(C)c2cc(CC(C)(C)C)on2)C1 [BACE_57]
5.72 | C[C@@H]1CCCCCCCNc2cccc(c2)C(=O)N[C@H]([C@H](O)CNCc2cc(C(C)(C)C)[nH]n2)C1 [BACE_58]
8.77 | C[C@@H]1CCCCCCCNc2cc(cc(-c3ncco3)c2)C(=O)N[C@H]([C@H](O)CNC2(c3cc(C(C)(C)C)ccn3)CC2)C1 [BACE_59]
7.48 | COCc1cc2cc(c1)C(=O)N[C@H]([C@H](O)CNC1(c3cccc(C(C)(C)C)c3)COC1)C[C@H](C)CCCCCCCN2 [BACE_60]
5.82 | COCc1cc2cc(c1)C(=O)N[C@H]([C@H](O)CNCc1cc(OC)cc(OC)c1)C[C@H](C)CCCCCCCN2 [BACE_61]
5.47 | COCc1cc2cc(c1)C(=O)N[C@H]([C@H](O)CNCc1ccc3c(c1)OCCCO3)C[C@H](C)CCCCCCCN2 [BACE_62]
9.00 | COCc1cc2cc(c1)C(=O)N[C@H]([C@H](O)CN[C@H]1CC(C)(C)Oc3ccc(C(C)C)cc31)C[C@H](C)CCCCCCCN2 [BACE_63]
6.24 | CCCc1cc(CNC[C@@H](O)[C@@H]2C[C@H](C)CCCCCCCNc3cc(COC)cc(c3)C(=O)N2)no1 [BACE_64]
5.77 | COCc1cc2cc(c1)C(=O)N[C@H]([C@H](O)CNCCc1ccncc1)C[C@H](C)CCCCCCCN2 [BACE_65]
6.46 | CC(C)c1cccc(CNC[C@@H](O)[C@@H]2C[C@H](C)CC/C=C/CCCNc3cc(CO)cc(c3)C(=O)N2)c1 [BACE_66]
6.68 | C[C@@H]1CC/C=C/CCCNc2cc(CO)cc(c2)C(=O)N[C@H]([C@H](O)CNCc2cc(CC(C)(C)C)on2)C1 [BACE_67]
8.82 | C[C@@H]1CCCCCCCNc2cc(cc(C(=O)N(C)C)c2)C(=O)N[C@H]([C@H](O)CNC2(c3cccc(C(C)(C)C)c3)CC2)C1 [BACE_68]
5.72 | CC(C)c1cccc(CNC[C@@H](O)[C@@H]2C[C@H](C)CCCCCCCN(S(C)(=O)=O)c3cc(cc(N(C)S(C)(=O)=O)c3)C(=O)N2)c1 [BACE_69]
5.54 | CC(C)c1cccc(C(C)(C)NC[C@@H](O)[C@@H]2C[C@H](C)CCCCCCCNc3cccc(n3)C(=O)N2)c1 [BACE_70]

The remaining lines, values behind:

SMILES | pIC50
CCCCNC(=O)[C@H](C)C[C@H](O)[C@@H]1C[C@H](C)CCCCCN(CC)C(=O)c2cc(OCC)cc(c2)C(=O)N1 [BACE_1] | 7.80
C[C@@H]1CCCCCCOCC(=O)N(C)[C@@H](C)C(=O)N[C@H]([C@H](O)CNC2(c3cccc(C(C)(C)C)c3)CC2)C1 [BACE_4] | 8.12
CCCc1cc(CNC[C@@H](O)[C@@H]2C[C@H](C)CCCCCCOCC(=O)N(C)[C@@H](C)C(=O)N2)n[nH]1 [BACE_5] | 6.40
CCN1CCCCC[C@@H](C)C[C@@H]([C@H](O)CNCc2cccc(C(C)C)c2)NC(=O)c2cccc(c2)C1=O [BACE_6] | 7.68
CC(C)c1cccc(CNC[C@@H](O)[C@@H]2C[C@H](C)CCCCCN([C@H](C)c3ccccc3)C(=O)c3cc(cc(-c4ncco4)c3)C(=O)N2)c1 [BACE_7] | 8.70
CC(C)c1cccc(CNC[C@@H](O)[C@@H]2C[C@H](C)CCOCCCCNc3cc(cc(Cl)n3)C(=O)N2)c1 [BACE_8] | 7.51
COCc1cc2cc(c1)C(=O)N[C@H]([C@H](O)CNCc1cccc(C(C)C)c1)C[C@H](C)CCCCCCCN2 [BACE_9] | 7.03
COCc1cc2cc(c1)C(=O)N[C@H]([C@H](O)CNCc1cccc(C(C)C)c1)C[C@H](C)CCOCCCCN2 [BACE_10] | 6.24
CC(C)c1cccc(CNC[C@@H](O)[C@@H]2Cc3cccc(c3)OCCCCCC(=O)N(C)[C@@H](C)C(=O)N2)c1 [BACE_11] | 7.49
COc1cc2cc(n1)NCCCCc1cccc(c1)C[C@@H]([C@H](O)CNCc1cccc(C(C)C)c1)NC2=O [BACE_12] | 8.11
COCc1cc2cc(c1)C(=O)N[C@H]([C@H](O)[C@H]1CO[C@@H](COC)CN1)Cc1cccc(c1)OCCCCN2 [BACE_13] | 5.08
CC(=O)c1cc2cc(c1)C(=O)N[C@H]([C@H](O)CNC1(c3cccc(C(C)C)c3)CC1)Cc1cccc(c1)OCCCCN2 [BACE_14] | 8.05
COCc1cc2cc(c1)C(=O)N[C@H]([C@H](O)CNCc1cccc(C(C)C)c1)Cc1cccc(c1)OCCCCO2 [BACE_15] | 7.14
CC(=O)COc1cc2cc(c1)C(=O)N[C@H]([C@H](O)CNCc1cccc(C(C)C)c1)Cc1cccc(c1)OCCCCO2 [BACE_16] | 7.47
CCCCNC(=O)[C@H](C)C[C@H](O)[C@@H]1C[C@H](C)CCc2cccc(c2)CS(=O)(=O)C[C@@H](C)C(=O)N1 [BACE_19] | 6.59
CCCCNC(=O)[C@H](C)C[C@H](O)[C@H](Cc1ccccc1)NC(=O)c1cc(NCCCC)nc(OC)c1 [BACE_20] | 6.11
CC(C)c1cccc(CNC[C@@H](O)[C@@H]2C[C@H](C)CC/C=C/CCCCC(=O)N(C)[C@@H](C)C(=O)N2)c1 [BACE_21] | 6.52
C[C@@H]1CCCCCCCCC(=O)N(C)[C@@H](C)C(=O)N[C@H]([C@H](O)CN[C@@H](C)c2cccc(Br)c2)C1 [BACE_22] | 7.26
C[C@@H]1CCCCCCCCC(=O)N(C)[C@@H](C)C(=O)N[C@H]([C@H](O)CNC2(c3cc(C(C)(C)C)ccn3)CC2)C1 [BACE_23] | 8.70
CCOc1ccc(C(F)(F)F)c(CNC[C@@H](O)[C@@H]2C[C@H](C)CCCCCCCCC(=O)N(C)[C@@H](C)C(=O)N2)c1 [BACE_24] | 7.28
CC(C)Cc1cncc(CNC[C@@H](O)[C@@H]2C[C@H](C)CC/C=C/CCCCC(=O)N(C)[C@@H](C)C(=O)N2)c1 [BACE_25] | 6.89

SMILES | pIC50
CC(C)Cc1cncc(C(C)(C)NC[C@@H](O)[C@@H]2C[C@H](C)CCCCCCCCC(=O)N(C)[C@@H](C)C(=O)N2)c1 [BACE_26] | 6.57
C[C@@H]1CCCCCCCCC(=O)N(C)[C@@H](C)C(=O)N[C@H]([C@H](O)CNC(C)(C)c2cc(CC(C)(C)C)on2)C1 [BACE_27] | 8.24
C[C@@H]1CCCCCCCCC(=O)N(C)[C@@H](C)C(=O)N[C@H]([C@H](O)CNC(C)(C)c2cccc(Br)c2)C1 [BACE_28] | 6.64
C[C@@H]1CCCCCCCCC(=O)N(C)[C@@H](C)C(=O)N[C@H]([C@H](O)CNCc2cc(CC(C)(C)C)on2)C1 [BACE_29] | 8.46
C[C@@H]1CCCCCCCCC(=O)N(C)[C@@H](C)C(=O)N[C@H]([C@H](O)CN[C@@H](C)c2cc(CC(C)(C)C)on2)C1 [BACE_30] | 9.00
C[C@@H]1CCCCCCCCC(=O)N(C)[C@@H](C)C(=O)N[C@H]([C@H](O)CNC(C)(C)c2nnc(CC(C)(C)C)s2)C1 [BACE_31] | 6.62
CC(C)c1cccc(CNC[C@@H](O)[C@@H]2C[C@H](C)CCCCCCCCC(=O)N(C)CC(=O)N2)c1 [BACE_32] | 6.44
CC(C)c1cccc(CNC[C@@H](O)[C@@H]2C[C@H](C)CCCCC[C@H](C)CCC(=O)N(C)[C@@H](C)C(=O)N2)c1 [BACE_33] | 7.72
CC(C)c1cccc(CNC[C@@H](O)[C@@H]2C[C@H](C)CCCCCOCC(=O)N(C)[C@@H](C)C(=O)N2)c1 [BACE_34] | 6.00
C[C@@H]1CCCCCCOCC(=O)N(C)[C@@H](C)C(=O)N[C@H]([C@H](O)CNCc2cncc(Br)c2)C1 [BACE_35] | 6.29
CC(C)Oc1ccc(C2CC2)cc1CNC[C@@H](O)[C@@H]1C[C@H](C)CCCCCCOCC(=O)N(C)[C@@H](C)C(=O)N1 [BACE_36] | 5.82
C[C@@H]1CCCCCCNC(=O)C[C@@H](C)C(=O)N[C@H]([C@H](O)CNCc2cccc(C(C)(C)C)c2)C1 [BACE_37] | 5.23
C[C@@H]1CCCCCCCCS(=O)(=O)C[C@@H](C)C(=O)N[C@H]([C@H](O)CNC2(c3cccc(C(C)(C)C)c3)CC2)C1 [BACE_38] | 7.62
C[C@@H]1CCCCCCCCS(=O)(=O)C[C@@H](C)C(=O)N[C@H]([C@H](O)CN[C@@H](C)c2cc(CC(C)(C)C)on2)C1 [BACE_39] | 7.68
CCN1CCCCC[C@@H](C)C[C@@H]([C@H](O)CNCc2cccc(C(C)C)c2)NC(=O)c2cc(cc(-c3ncco3)c2)C1=O [BACE_40] | 8.46
Cc1cc2cc(n1)NCCCCCCC[C@@H](C)C[C@@H]([C@H](O)CNCc1cccc(C(C)C)c1)NC2=O [BACE_41] | 7.54
CC(C)c1cccc(CNC[C@@H](O)[C@@H]2C[C@H](C)CCCCCCCN(C)c3cc(ccn3)C(=O)N2)c1 [BACE_42] | 6.13
COc1cc2cc(n1)NCCCCCCC[C@@H](C)C[C@@H]([C@H](O)CNCc1cccc(C(C)C)c1)NC2=O [BACE_43] | 7.85
Cc1cc2cc(n1)N(C)CCCCCC[C@@H](C)C[C@@H]([C@H](O)CNCc1cccc(C(C)C)c1)NC2=O [BACE_44] | 5.68
C/C1=C\CCCCCCNc2cc(cc(C)n2)C(=O)N[C@H]([C@H](O)CNCc2cccc(C(C)C)c2)C1 [BACE_45] | 8.14
CC(C)c1cccc(CNC[C@@H](O)[C@@H]2C[C@H](C)C/C=C\CCCCNc3cc(cc(Cl)n3)C(=O)N2)c1 [BACE_46] | 8.02
